Measurements published in US11149019B2, “Phenylpyridine derivative and pharmaceutical composition comprising the same” (Daewoong Pharmaceutical Co., Ltd., priority 2017, dated 2021).
pIC50: −log10 of the molar value.

Key:
[1] = molecular target: T1, ITK (Homo sapiens, UniProt Q08881); test: ADP-Glo + ITK Kinase enzyme system kit, inhibitory activity against ITK; assay type: biochemical; conditions: ITK enzyme 0.4 ng/ul, ATP final concentration of 25 ul, 30° C. for 1 hour, luminescence, duplicate
T1 construct: purchased Promega Corporation
T1 sequence (Q08881 1-620): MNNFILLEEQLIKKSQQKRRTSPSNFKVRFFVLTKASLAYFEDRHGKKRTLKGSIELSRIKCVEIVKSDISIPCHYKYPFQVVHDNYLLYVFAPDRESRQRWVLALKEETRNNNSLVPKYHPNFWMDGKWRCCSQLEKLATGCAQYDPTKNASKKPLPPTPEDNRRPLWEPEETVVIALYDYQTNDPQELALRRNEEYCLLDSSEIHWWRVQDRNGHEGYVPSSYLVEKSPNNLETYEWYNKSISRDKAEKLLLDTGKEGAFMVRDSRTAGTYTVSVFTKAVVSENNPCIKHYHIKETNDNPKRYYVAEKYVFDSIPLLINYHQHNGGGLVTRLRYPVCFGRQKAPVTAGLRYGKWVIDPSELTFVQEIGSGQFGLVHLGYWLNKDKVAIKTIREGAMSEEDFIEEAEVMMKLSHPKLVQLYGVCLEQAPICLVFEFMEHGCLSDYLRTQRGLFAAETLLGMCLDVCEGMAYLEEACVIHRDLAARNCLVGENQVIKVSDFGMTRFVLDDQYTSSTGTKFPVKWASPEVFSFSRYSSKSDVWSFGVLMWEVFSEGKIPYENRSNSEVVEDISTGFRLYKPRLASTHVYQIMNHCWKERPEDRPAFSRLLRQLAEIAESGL
Experimental: (§1) Inhibitory activities against BTK and ITK were measured for the compounds prepared in the above Examples as follows.
The inhibitory activity against ITK was evaluated using ‘ADP-Glo™+ITK Kinase enzyme system’ kit (Promega Corporation). In a white 96-well plate, 10 ul of ITK enzyme prepared so as to have a final concentration of 0.4 ng/ul was mixed with 5 ul of compounds having a final concentration of 1 uM in the case of evaluating a single concentration of compound and a concentration of 1000, 300, 100, 30, 10, 3, 1, 0.3, 0.1 and 0.03 nM in the case of IC50 evaluation, and then reacted at room temperature for 15 minutes. To the plate on which reactions were completed, 5 ul of substrate and 5 ul of ATP prepared so as to have a final concentration of […] added and then allowed to react at 30° C. for 1 hour. All wells of the plate were treated with 25 ul of ADP-Glo™ reagent and then allowed to react at 30° C. for 40 minutes. After that, all wells were treated with 50 ul of kinase detection buffer, and then allowed to react at 30° C. for 30 minutes under light shielding conditions. For the plate on which all reactions were completed, luminescence was measured and the results were calculated. Evaluation was carried out in duplicate, and negative control and positive control were calculated depending on whether or not the enzyme was added without treatment of the compound. The IC50 was calculated based on the calculated values.

[2] = molecular target: T2, BTK (Homo sapiens, UniProt Q06187); test: ADP-Glo + BTK Kinase enzyme system kit, inhibitory activity against BTK; assay type: biochemical; conditions: BTK enzyme 1 ng/ul, ATP 10 μM, 30° C. for 1 hour, luminescence, duplicate
T2 construct: purchased Promega Corporation
T2 sequence (Q06187 whole entry): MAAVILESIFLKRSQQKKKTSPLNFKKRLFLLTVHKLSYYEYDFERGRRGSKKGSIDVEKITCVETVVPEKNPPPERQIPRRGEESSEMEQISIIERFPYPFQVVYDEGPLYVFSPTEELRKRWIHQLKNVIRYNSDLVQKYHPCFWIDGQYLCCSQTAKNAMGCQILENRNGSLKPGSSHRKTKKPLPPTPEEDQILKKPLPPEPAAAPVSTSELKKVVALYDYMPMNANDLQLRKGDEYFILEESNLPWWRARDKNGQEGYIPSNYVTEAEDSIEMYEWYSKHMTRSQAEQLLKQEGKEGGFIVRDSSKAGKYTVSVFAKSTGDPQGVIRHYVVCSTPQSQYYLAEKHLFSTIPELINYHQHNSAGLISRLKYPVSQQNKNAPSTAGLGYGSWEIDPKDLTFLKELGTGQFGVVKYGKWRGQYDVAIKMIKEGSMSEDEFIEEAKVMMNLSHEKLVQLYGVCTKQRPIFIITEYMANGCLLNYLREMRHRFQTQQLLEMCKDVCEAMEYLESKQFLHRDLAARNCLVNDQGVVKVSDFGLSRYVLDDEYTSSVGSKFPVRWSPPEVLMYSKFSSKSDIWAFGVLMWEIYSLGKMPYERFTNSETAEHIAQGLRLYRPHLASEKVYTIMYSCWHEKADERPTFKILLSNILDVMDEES
Experimental: as §1
The inhibitory activities against BTK were evaluated using ‘ADP-Glo™+BTK Kinase enzyme system’ kit (Promega Corporation). In a white 96-well plate, 10 ul of BTK enzyme prepared so as to have a final concentration of 1 ng/ul was mixed with 5 μl of compounds having a final concentration of […] the case of evaluating a single concentration of compound and a concentration of 1000, 300, 100, 30, 10, 3, 1, 0.3, 0.1 and 0.03 nM in the case of IC50 evaluation, and then reacted at room temperature for 15 minutes. 5 ul of substrate and 5 ul of ATP prepared so as to have a final concentration of 10 μM were added to the plate on which reactions were completed, and then allowed to react at 30° C. for 1 hour. All wells of the plate were treated with 25 ul of ADP-Glo™ reagent and allowed to react at 30° C. for 40 minutes. After that, all wells were treated with 50 ul of kinase detection buffer, and then reacted at 30° C. for 30 minutes under light shielding conditions. For the plate on which all reactions were completed, luminescence was measured and the results were calculated. Evaluation was carried out in duplicate, and negative control and positive control were calculated depending on whether or not the enzyme was added without treatment of the compound. The IC50 was calculated based on the calculated values.

| SMILES | pIC50 [1] | pIC50 [2] |
| --- | --- | --- |
| C=CC(=O)Nc1ccc(F)c(-c2cc(CN3CCOCC3)cc(Nc3ncc(C)s3)n2)c1 [Compound 52] | 8.66 | 8.72 |
| C=CC(=O)Nc1cccc(-c2cccc(Nc3cc[nH]n3)n2)c1 [Compound 15, N-(3-(6-(1H-pyrazol-3-ylamino)pyridin-2-yl)phenyl)acrylamide] | < 6.30 | 7.74 |
| C=CC(=O)Nc1cccc(-c2cc(CN3CCOCC3)cc(Nc3cc(C)on3)n2)c1 [Compound 40, N-(3-(6-((5-methylisoxazol-3-ylamino)-4-(morpholino)methyl)pyridin-2-yl)phenyl)acrylamide] | < 6.00 | < 6.40 |
| C=CC(=O)Nc1cc(-c2cc(CN3CCOCC3)cc(Nc3ncc(C)s3)n2)ccc1C [Compound 58] | 7.85 | 8.19 |
| C=CC(=O)Nc1cccc(-c2cc(Cc3ccccc3)cc(Nc3cc(-c4ccccc4)[nH]n3)n2)c1 [Compound 5, N-(3-(4-benzyl-6-((5-phenyl-1H-pyrazol-3-yl)amino)pyridin-2-yl)phenyl)acrylamide] | 6.50 | 6.11 |
| C=CC(=O)Nc1ccc(C)c(-c2cc(CN3CCOCC3)cc(Nc3ncc(C)s3)n2)c1 [Compound 59, N-(4-methyl-3-(6-((5-methylthiazol-2-yl)amino)-4-(morpholinomethyl)pyridin-2-yl)phenyl)acrylamide] | 7.74 | 8.08 |
| C=CC(=O)Nc1cccc(-c2cccc(Nc3cc(-c4ccccc4)[nH]n3)n2)c1 [Compound 14, N-(3-(6-(5-phenyl-1H-pyrazol-3-ylamino)pyridin-2-yl)phenyl)acrylamide] | 6.40 | 6.46 |
| C=CC(=O)Nc1cc(F)cc(-c2cc(CN3CCOCC3)cc(Nc3ncc(C)s3)n2)c1 [Compound 57, N-(3-fluoro-5-(6-((5-methylthiazol-2-yl)amino)-4-(morpholinomethyl)pyridin-2-yl)phenyl)acrylamide] | 7.63 | < 8.20 |
| C=CC(=O)Nc1cccc(-c2cc(C(=O)NC(C)C(C)(C)C)cc(Nc3cc(C)[nH]n3)n2)c1 (stereo not drawn) [Compound 20, 2-(3-acrylamidophenyl)-N-(3,3-dimethylbutan-2-yl)-6-(5-methyl-1H-pyrazol-3-ylamino)isonicotinamide] | 6.60 | 7.55 |
| C=CC(=O)Nc1cccc(-c2cc(CN3CCN(CCO)CC3)cc(Nc3ncc(C)s3)n2)c1 [Compound 43, N-(3-(4-((4-(2-hydroxyethyl)piperazin-1-yl)methyl)-6-(5-methylthiazol-2-ylamino)pyridin-2-yl)phenyl)acrylamide] | 8.68 | 8.64 |
| C=CC(=O)Nc1cccc(-c2cc(CN3CCOCC3)cc(Nc3nnc(C)o3)n2)c1 [Compound 41, N-(3-(6-((5-methyl-1,3,4-oxadiazol-2-yl)amino)-4-(morpholinomethyl)pyridin-2-yl)phenyl)acrylamide] | < 6.00 | < 6.40 |
| C=CC(=O)Nc1cccc(-c2cc(Cc3ccccc3)cc(Nc3cc(CCc4ccccc4)[nH]n3)n2)c1 [Compound 10, N-(3-(4-benzyl-6-((5-phenethyl-1H-pyrazol-3-yl)amino)pyridin-2-yl)phenyl)acrylamide] | 6.30 | 7.19 |
| C#CC(=O)Nc1cccc(-c2cc(Cc3ccccc3)cc(Nc3cc(C)[nH]n3)n2)c1 [Compound 6, N-(3-(4-benzyl-6-((5-methyl-1H-pyrazol-3-yl)amino)pyridin-2-yl)phenyl)propiolamide] | < 6.30 | < 6.00 |
| C=CC(=O)Nc1cccc(-c2cccc(Nc3cc(C)[nH]n3)n2)c1 [Compound 12] | 6.00 | 8.11 |
| C=CC(=O)Nc1cccc(-c2cc(Cc3ccccc3)cc(Nc3cc[nH]n3)n2)c1 [Compound 11] | 6.87 | 7.76 |
| C=CC(=O)Nc1cccc(-c2cc(CN3CCOCC3)cc(Nc3cc(C)[nH]n3)n2)c1 [Compound 22, N-(3-(6-((5-methyl-1H-pyrazol-3-yl)amino)-4-(morpholinomethyl)pyridin-2-yl)phenyl)acrylamide] | 7.11 | 8.21 |

Results, then the compound that gave them:

| pIC50 [1] | pIC50 [2] | SMILES |
| --- | --- | --- |
| 7.43 | 7.16 | C=CC(=O)Nc1cccc(-c2cc(CN3CCOCC3)cc(Nc3cc(C4CC4)[nH]n3)n2)c1 [Compound 27, N-(3-(6-((5-cyclopropyl-1H-pyrazol-3-yl)amino)-4-(morpholinomethyl)pyridin-2-yl)phenyl)acrylamide] |
| 8.26 | 9.05 | C=CC(=O)Nc1cccc(-c2cc(CN3CCN(C)CC3)cc(Nc3ncc(C)s3)n2)c1 [Compound 37, N-(3-(4-((4-methylpiperazin-1-yl)methyl)-6-(5-methylthiazol-2-ylamino)pyridin-2-yl)phenyl)acrylamide] |
| 7.05 | 7.62 | C=CC(=O)Nc1cccc(-c2cc(Cc3ccccc3)cc(Nc3cc(C)[nH]n3)n2)c1 [Compound 2, N-(3-(4-benzyl-6-(5-methyl-1H-pyrazol-3-ylamino)pyridin-2-yl)phenyl)acrylamide] |
| 7.87 | 7.97 | C=CC(=O)Nc1cccc(-c2cc(CN3CCCN(C)CC3)cc(Nc3ncc(C)s3)n2)c1 [Compound 55, N-(3-(4-((4-methyl-1,4-diazepan-1-yl)methyl)-6-(5-methylthiazol-2-ylamino)pyridin-2-yl)phenyl)acrylamide] |
| 8.54 | 8.72 | C=CC(=O)Nc1cccc(-c2cc(CN3CCN(C(C)C)CC3)cc(Nc3ncc(C)s3)n2)c1 [Compound 54] |
| < 6.00 | 8.72 | C=CC(=O)Nc1cccc(-c2cc(CN3CCOCC3)cc(Nc3ncc(C(=O)Nc4c(C)cccc4Cl)s3)n2)c1 [Compound 33, 2-((6-(3-acrylamidophenyl)-4-(morpholinomethyl)pyridin-2-yl)amino)-N-(2-chloro-6-methylphenyl)thiazole-5-carboxamide] |
| 7.24 | 7.75 | C=CC(=O)Nc1cccc(-c2cc(C(=O)N3CCOCC3)cc(Nc3cc(C)[nH]n3)n2)c1 [Compound 31, N-(3-(6-((5-methyl-1H-pyrazol-3-yl)amino)-4-(morpholine-4-carbonyl)pyridin-2-yl)phenyl)acrylamide] |
| 8.30 | 8.66 | C=CC(=O)Nc1cccc(-c2cc(CN3CCN(CC(F)(F)F)CC3)cc(Nc3ncc(C)s3)n2)c1 [Compound 50, N (3(6(5methylthiazol-2-ylamino)-4-((4-(2,2,2-trifluoroethyl)piperazin-1-yl)methyl)pyridin-2-yl)phenyl)acrylamide] |
| 6.27 | < 6.40 | C/C=C/C(=O)Nc1cccc(-c2cc(Cc3ccccc3)cc(Nc3cc(C)[nH]n3)n2)c1 [Compound 38, (E)-N-(3-(4-benzyl-6-(5-methyl-1H-pyrazol-3-ylamino)pyridin-2-yl)phenyl)but-2-enamide] |
| 8.68 | 8.72 | C=CC(=O)N(C)c1cccc(-c2cc(CN3CCOCC3)cc(Nc3ncc(C)s3)n2)c1 [Compound 65] |
| < 6.30 | 6.91 | C=CC(=O)Nc1cccc(-c2cc(Cc3ccccc3)cc(Nc3cc(-c4ccc(Oc5ccccc5)cc4)[nH]n3)n2)c1 [Compound 7, N-(3-(4-benzyl-6-((5-(4-phenoxyphenyl)-1H-pyrazol-3-yl)amino)pyridin-2-yl)phenyl)acrylamide] |
